From patent publication US11591315B2, “Substituted pyrazole-pyrimidines, variants thereof, and uses therefore” (Afferent Pharmaceuticals, Inc., priority 2016, dated 2023)

How the values were obtained:
human P2X2/3 channels = biological target: T1, human P2X2/3 channels (Homo sapiens, UniProt P56373+Q9UBL9); assay: FlexStation calcium fluorescence assay, 1321N1 cells stably transfected with human P2X2 and P2X3 (heteromeric P2X2/3 channels); type: cell-based; conditions: 1321N1-hP2X2/3 cells, Fluo-4 dye, agonist ATP, 20 minutes incubation; read-out: Average pIC50 P2X2/3 (converted)
T1 construct: expressed in transfected cells; host or cells: 1321N1 human astrocytoma cells (1321N1-hP2X2/3)
T1 sequence (P56373 1-397): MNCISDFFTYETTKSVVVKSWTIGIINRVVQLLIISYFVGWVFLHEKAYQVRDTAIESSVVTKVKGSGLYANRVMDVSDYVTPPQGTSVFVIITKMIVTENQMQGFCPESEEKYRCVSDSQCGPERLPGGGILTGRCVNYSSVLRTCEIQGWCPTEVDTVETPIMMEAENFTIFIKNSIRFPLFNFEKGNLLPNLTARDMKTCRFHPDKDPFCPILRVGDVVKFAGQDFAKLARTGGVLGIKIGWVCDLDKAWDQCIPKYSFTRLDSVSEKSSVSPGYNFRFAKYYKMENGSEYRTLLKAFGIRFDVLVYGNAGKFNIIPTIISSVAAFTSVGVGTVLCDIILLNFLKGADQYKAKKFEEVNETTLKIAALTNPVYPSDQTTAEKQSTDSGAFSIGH
T1 sequence (Q9UBL9 1-471): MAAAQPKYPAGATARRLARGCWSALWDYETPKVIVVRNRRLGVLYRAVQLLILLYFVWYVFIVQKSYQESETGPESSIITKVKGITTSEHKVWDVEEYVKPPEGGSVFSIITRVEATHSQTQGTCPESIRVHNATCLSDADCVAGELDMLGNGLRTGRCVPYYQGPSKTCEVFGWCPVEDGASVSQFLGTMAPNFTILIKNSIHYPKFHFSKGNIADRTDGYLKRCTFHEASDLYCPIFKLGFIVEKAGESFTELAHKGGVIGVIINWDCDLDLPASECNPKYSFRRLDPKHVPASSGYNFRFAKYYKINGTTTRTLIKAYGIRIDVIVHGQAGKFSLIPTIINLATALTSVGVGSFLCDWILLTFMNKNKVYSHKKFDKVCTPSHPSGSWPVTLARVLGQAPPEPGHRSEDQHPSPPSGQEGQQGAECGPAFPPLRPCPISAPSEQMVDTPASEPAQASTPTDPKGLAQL
Protocol: (§1) 1321N1 human astrocytoma and HEK293 human embryonic kidney cells were stably transfected with human P2X2 and P2X3 receptor subunits to form heteromeric P2X2/3 channels and passaged in flasks. Additionally, HEK293 cells were stably transfected with human P2X3 receptor subunits to form homomeric P2X3 channels.
(§2) Approximately 24 hours before the FlexStation calcium fluorescence experiment, cells were released from their flasks, centrifuged and re-suspended in nutrient medium. The cells were aliquoted into black-wall, clear-bottom 96 well plates at a density of 25,000 cells per well and incubated overnight in a humidified, CO2-enriched (5%) atmosphere at 37° C. […]
(§3) After 20 minutes incubation at room temperature and protected from light, the assay plates were loaded into the FlexStation microplate reader and baseline fluorescence measured with an excitation wavelength of 485 nm and emission wavelength readings centered at 525 nm (515 nm cut off).
(§4) The agonist was dispensed by the FlexStation during fluorescence measurement to construct agonist activation and antagonist inhibition curves. […] Peak fluorescence was measured and curves generated using a four parameter nonlinear regression equation. […]

human P2X3 receptor = biological target: T2, human P2X3 receptor (Homo sapiens, UniProt P56373); assay: FlexStation calcium fluorescence assay, HEK293 cells stably transfected with human P2X3 (homomeric P2X3 channels); type: cell-based; conditions: HEK-hP2X3 cells, Calcium 6 dye, agonist 1 μM α,β-meATP, 20 minutes incubation; read-out: Average pIC50 P2X3 (converted)
T2 construct: expressed in transfected cells; host or cells: HEK293 human embryonic kidney cells (HEK-hP2X3)
T2 sequence (P56373 1-397): T1 sequence (P56373 1-397)
Protocol: as §1, §2, §3, §4

COc1cc(Oc2cnc(N)nc2N)n(C(C)C)n1 [Compound 2]
IC50 (human P2X2/3 channels): 1.95 µM | IC50 (human P2X3 receptor): 0.288 µM

CCOc1cc(Oc2cnc(N)nc2N)n(C(C)C)n1 [Compound 1]
IC50 (human P2X2/3 channels): > 10 µM | IC50 (human P2X3 receptor): 6.92 µM
